# From EPA's ToxValDB 9.5 (doi:10.2903/j.efsa.2013.3143)
# Several values for one entry are separate records, joined by “and”; a condition that tells them apart may be missing. Equal values may be shown once.
# How the values were obtained:
# Rattus norvegicus = conditions: for LD50: acute, oral, mortality
# Apis mellifera = conditions: acute, mortality
# Bibionidae = conditions: chronic/long-term; duration: 28 days; other
# Canidae = conditions: chronic; duration: 1 years; oral; Dog Other; organ weight
# Cyprinodon variegatus = conditions: acute; duration: 96 hours; mortality
# Daphnia magna = conditions: chronic/long-term; duration: 21 days; reproduction
# Hypoaspis aculeifer = conditions: chronic/long-term; duration: 16 days; mortality
# Oncorhynchus mykiss = conditions: chronic/long-term; duration: 90 days; development
# Typhlodromus pyri = experiment: LR50; higher = less toxic; conditions: chronic/long-term; duration: 7 days; mortality
SMILES,"LD50 (Mus musculus; acute, oral, mortality) [mg/kg-day]",LD50 (Rattus norvegicus) [mg/kg-day],"LD50 (Apis mellifera; duration: 48 hours, oral, unspecified) [µg/piece]","LD50 (Apis mellifera; duration: 72 hours, dermal) [µg/piece]",NOEC (Bibionidae),NOAEL (Canidae) [mg/kg-day],"LC50 (Colinus virginianus; acute, oral, diet, mortality) [mg/kg-day]","LD50 (Colinus virginianus; acute, oral, mortality) [mg/kg-day]","NOAEL (Colinus virginianus; reproduction developmental, reproduction) [mg/kg-day]",LC50 (Cyprinodon variegatus) [µg/mL],NOEC (Daphnia magna) [mg/L],NOEC (Hypoaspis aculeifer) [mg/kg],"NOAEL (Mus musculus; chronic, duration: 18 months, histopathology: nonneoplastic) [mg/kg-day]",NOEC (Oncorhynchus mykiss) [mg/L],"NOAEL (Rattus norvegicus; chronic, duration: 2 years, organ weight) [mg/kg-day]","NOAEL (Rattus norvegicus; reproduction developmental, no effects) [mg/kg-day]","LC50 (Tagia sp.; acute, duration: 14 days, mortality) [mg/kg]","NOEC (Tagia sp.; chronic/long-term, duration: 56 days, reproduction) [mg/kg]",LR50 (Typhlodromus pyri) [g/ha]
CNC(=O)c1cc(Br)[nH]n1 [5-Bromo-N-methyl-1H-pyrazole-3-carboxamide],> 2000,,,,,,,,,,,,,,,,,,
Cc1cc(Cl)cc2c(=O)n(C)c(-c3cc(Br)[nH]n3)nc12 [Chlorantraniliprole metabolite (IN-LBA24)],,> 2000,,,,,,,,,,,,,,,,,
CNC(=O)c1cc(Cl)cc(C)c1NC(=O)c1cc(Br)nn1-c1ncccc1Cl [Chlorantraniliprole],,> 5000,> 104,> 4,0.0025 mg/L and 0.005 mg/kg,278,> 1730,> 2250,10.1,> 12,0.00447,100,158,0.11,156,1200,> 1000,1000,> 750
